Source: US8193228B2, “Substituted imidazole as bombesin receptor subtype-3 modulators” (Merck Sharp & Dohme Corp., priority 2006, dated 2012)

The molecules below were run against T1, human BRS-3 (Homo sapiens, UniProt P32247) (assay: BRS-3 receptor binding assay (radioligand filtration)). Settings: read-out: BRS-3 binding IC50; selected compounds.
T1 construct: expressed in transfected cells
T1 sequence (P32247 1-399): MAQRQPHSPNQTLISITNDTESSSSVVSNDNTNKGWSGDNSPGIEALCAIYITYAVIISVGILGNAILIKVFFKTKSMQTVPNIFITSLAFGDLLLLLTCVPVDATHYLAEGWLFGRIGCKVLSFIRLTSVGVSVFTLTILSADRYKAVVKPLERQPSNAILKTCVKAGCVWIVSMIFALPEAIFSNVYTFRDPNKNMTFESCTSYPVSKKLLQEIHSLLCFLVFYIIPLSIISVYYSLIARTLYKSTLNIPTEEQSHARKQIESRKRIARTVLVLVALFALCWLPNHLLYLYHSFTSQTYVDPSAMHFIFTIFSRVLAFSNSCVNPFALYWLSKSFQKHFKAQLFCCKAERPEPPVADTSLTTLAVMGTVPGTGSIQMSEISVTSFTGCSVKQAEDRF
Protocol: Dissociated cells were collected by centrifuging at 1000 rpm for 10 minutes. Cell pellets were resuspended and homogenized at 4° C. using a Polytron homogenizer (setting 40, 20 stokes) in approximately 10 mL membrane preparation buffer (10 mM Tris pH 7.4, 0.01 mM Pefabloc, 10 μM phosphoramidon and 40 μg/mL Bacitracin) per T175 flask. After centrifugation at 2200 rpm (1000×g) for 10 minutes at 4° C., the supernatant was transferred to a clean centrifuge tube and spun at 18,000 rpm (38,742×g) for 15 minutes. at 4° C.
The filters were washed five times with ice-cold washing buffer (1×PBS without Mg^++ and Ca^++). The radioactivity was determined by adding 30 μl of microscintillant/well after each plate was dried at room temperature overnight or placed at 50° C. for 1 hr.
The radioligand, [^3H]-1-{4-[(4,5-difluoro-2-hydroxycarbonylphenyl)phenyl]}-2-(4-cyclohexylmethyl-1H-imidazol-2-yl)ethane, was used for binding to receptor membranes generated with BRS3 from other species and was also utilized for the human receptor. […] After incubation for 1-2 hours at room temperature, membrane bound [^3H]-biphenyl was separated from free radiologand by filtering through GF/C filters presoaked in 1% PEI solution. The filters were washed five times with ice-cold washing buffer (50 mM Tris pH 7.4, 10 mM MgCl2, 2.5 mM EDTA and 0.02% Triton X-100). The radioactivity was determined by adding 30 μl of microscintillant/well after each plate was dried at room temperature overnight or placed at 50° C. for 1 hr.
A Packard Top Count was used to read the filter plates. The data in % inhibition of binding was plotted vs. the log molar concentration of receptor ligand (compound). The IC50 was reported as the inflection point of the resulting sigmoidal curve.

IC50	Structure (SMILES)
36 nM	O[C@@](Cc1nc(CC2(C(F)(F)F)CC2)c[nH]1)(c1ccc(-n2cccn2)cc1)C(F)(F)F [Example 31a, (2S)-1,1,1-trifluoro-2-[4-(1H-pyrazol-1-yl)phenyl]-3-(4-{[1-(trifluoromethyl)cyclopropyl]methyl}-1H-imidazol-2-yl)propan-2-ol]

Same assay, conditions: selected compounds; read-out: BRS-3 binding IC50

Structure (SMILES)	IC50
CC(C)(C)Cc1c[nH]c(CC(O)(c2ccc(-c3ccc(F)cn3)cc2)C(F)(F)F)n1 (stereo not drawn) [Example 1, 3-[4-(2,2-dimethylpropyl)-1H-imidazol-2-yl]-1,1,1-trifluoro-2-[4-(5-fluoropyridin-2-yl)phenyl]propan-2-ol]	18 nM
OC(Cc1nc(CC2(C(F)(F)F)CC2)c[nH]1)(c1ccc(-c2ccc(F)cn2)cc1)C(F)F (stereo not drawn) [Example 45, 1,1-difluoro-2-[4-(5-fluoropyridin-2-yl)phenyl]-3-(4-{[1-(trifluoromethyl)cyclopropyl]methyl}-1H-imidazol-2-yl)propan-2-ol]	71 nM
CC(C)(C)Cc1c[nH]c(CC(C)(O)c2ccc(-c3ccc(F)cn3)cc2)n1 (stereo not drawn) [Example 4, 1-[4-(2,2-dimethylpropyl)-1H-imidazol-2-yl]-2-[4-(5-fluoropyridin-2-yl)phenyl]propan-2-ol]	19 nM
CC(C)(C)Cc1c[nH]c(CC(O)(c2ccc(-c3ccc(F)cn3)cc2)C(F)F)n1 (stereo not drawn) [Example 40, 3-[4-(2,2-dimethylpropyl)-1H-imidazol-2-yl]-1,1-difluoro-2-[4-(5-fluoropyridin-2-yl)phenyl]propan-2-ol]	15 nM

Second part, the molecule after the results:

IC50	Structure (SMILES)
23 nM	CC(C)(C)Cc1c[nH]c(CC(C)(O)c2ccc(-n3cccn3)cc2)n1 (stereo not drawn) [Example 60, 1-[4-(2,2-dimethylpropyl)-1H-imidazol-2-yl]-2-[4-(1H-pyrazol-1-yl)phenyl]propan-2-ol]
12 nM	OC(Cc1nc(CC2(C(F)(F)F)CC2)c[nH]1)(c1ccc(-n2cccn2)cc1)C(F)F (single isomer, unassigned) [Example 72, 1,1-difluoro-2-[4-(1H-pyrazol-1-yl)phenyl]-3-(4-{[1-(trifluoro-methyl)cyclopropyl]methyl}-1H-imidazol-2-yl)propan-2-ol]
56 nM	OC(Cc1nc(CC2(C(F)(F)F)CC2)c[nH]1)(c1ccc(-c2ccc(F)cn2)cc1)C(F)(F)F (single isomer, unassigned) [Example 55, 1,1,1-trifluoro-2-[4-(5-fluoropyridin-2-yl)phenyl]-3-(4-{[1-(trifluoromethyl)cyclopropyl]methyl}-1H-imidazol-2-yl)propan-2-ol]
19 nM	CC(O)(Cc1nc(CC2(C(F)(F)F)CC2)c[nH]1)c1ccc(-n2cccn2)cc1 (stereo not drawn) [Example 52, 2-[4-(1H-pyrazol-1-yl)phenyl]-1-(4-{[1-(trifluoromethyl)cyclopropyl]methyl}-1H-imidazol-2-yl)propan-2-ol]
11 nM	CC(C)(C)Cc1c[nH]c(CC(O)(c2ccc(-n3cccn3)cc2)C(F)F)n1 (stereo not drawn) [Example 75, 3-[4-(2,2-dimethylpropyl)-1H-imidazol-2-yl]-1,1-difluoro-2-[4-(1H-pyrazol-1-yl)phenyl]propan-2-ol]
17 nM	CC(C)(C)Cc1c[nH]c(CC(O)(c2ccc(-n3cccn3)cc2)C(F)(F)F)n1 (stereo not drawn) [Example 78, 3-[4-(2,2-dimethylpropyl)-1H-imidazol-2-yl]-1,1,1-trifluoro-2-[4-(1H-pyrazol-1-yl)phenyl]propan-2-ol]
54 nM	CC(O)(Cc1nc(CC2(C(F)(F)F)CC2)c[nH]1)c1ccc(-c2ccc(F)cn2)cc1 (stereo not drawn) [Example 49, 2-[4-(5-fluoropyridin-2-yl)phenyl]-1-(4-{[1-(trifluoromethyl)cyclopropyl]methyl}-1H-imidazol-2-yl)propan-2-ol]
